Measurements reported in US20110039921A1 (priority 2007, published 2011).
Like-named read-outs stand apart in the source and are kept apart here.

Experiments:
[1] = system: A549: the human lung adenocarcinoma cell strain; test: cells; type: cell-based
Description: (§1) Experiment 1. Cytotoxicity Screening Assay at Cell Level of Compounds of this Invention
(§2) Tumor cells at log phase were incubated on 96-well plates at a density of 1˜1.2×10^4 cells/ml, 100 μl/well. 24 h later, treatment cells were exposed to the tested agents at different concentrations. Each tested agents had 4˜5 doses, and each dose had at least 3 parallel wells. Control cells were exposed to solvents in the same volume with treat agents. Cells were cultured at 37° C. in a cell incubator with 5% CO2 and 95% air atmosphere. After 4 days of culture, the incubation medium was removed, then 200 μl 0.2% MTT (prepared by RPMI 1640) was added to each well and the plates were incubated at 37° C. for 4 hours. The supernatant was discarded and dissolved the resulting formazen product with 200 μl DMSO in each well. The absorbance at a reference wavelength of 450 nm and a test wavelength of 570 nm was read on a microplate reader after tenderly shaking. Calculated drug inhibitory rate using the following equation and IC50, taking solvent exposure tumor cells as control cells.

[2] = system: KB/V: the vincristine-resistant substrain of KB; test: cells; type: cell-based, human; details: read-out: IC50(M) KB/V
Description: as §1, §2

[3] = system: A549/Taxol: the taxol-resistant substrain of A549; test: cells; type: cell-based, human
Description: as §1, §2

[4] = system: KB: the human oral epithelium cancer cell strain; test: cells; type: cell-based
Description: as §1, §2

[5] = system: human ovarian cancer A2780-nude mice-xenograft tumor; test: Growth inhibition on A2780-nude mice-xenograft tumor
Source text: (§3) Genera: BALB/c (nu-nu) nude mice
(§4) After one-week accommodation, animals were given subcutaneous implantation of the human lung adenocarcinoma A549 or the human ovarian cancer A2780 or the human gastric carcinoma BGC-823 cells. Animals were grouped randomly (d0) when the tumors reached 100-300 mm^3. […] Animal weights and tumor measurements were taken every […] and recorded. At the end of the study (d30 or d35), nude mice were euthanized and weighed. After the animals were sacrificed, tumor tissue was cut and weighed. Tumor volume was determined using the following equation: […]

BGC-823 = test: MTT cytotoxicity assay, BGC-823 cells; type: cell-based, human; details: Homo sapiens, BGC-823, Table 2, read-out: IC50 (mol/L) BGC-823
Description: as §1, §2

Lewis lung cancer = test: Inhibitory activity on mice Lewis lung cancer
[6] = system: MCF-7/D: adriamycin-resistant subline of the human mammary adenocarcinoma cell strain MCF-7; test: MTT cytotoxicity assay, MCF-7/D cells; type: cell-based; details: Homo sapiens, MCF7, Table 2, read-out: IC50 (mol/L) MCF-7/D
Description: as §1, §2

[7] = system: human mammary adenocarcinoma cell strain MCF-7; test: MTT cytotoxicity assay, MCF-7 cells; type: cell-based; details: Homo sapiens, MCF7, Table 2, read-out: IC50 (mol/L) MCF-7
Description: as §1, §2

HCT-8 = test: MTT cytotoxicity assay, HCT-8 cells; type: cell-based; details: Homo sapiens, HCT-8, Table 2, read-out: IC50 (mol/L) HCT-8
Description: as §1, §2

BGC-803 = test: MTT cytotoxicity assay, BGC-803 cells; type: cell-based; details: BGC803, Table 2, read-out: IC50 (mol/L) BGC-803
Description: as §1, §2

[8] = system: human lung adenocarcinoma A549-nude mice-xenograft tumor; test: Growth inhibition on A549-nude mice-xenograft tumor
Source text: as §3, §4

[9] = system: human gastric carcinoma BGC-823 nude mice-xenograft tumor; test: Growth inhibition on BGC-823-nude mice-xenograft tumor
Source text: as §3, §4

[10] = Table 1, MTT, 4 days of culture, read-out: IC50(M) A549
[11] = Table 1, MTT, 4 days of culture
[12] = read-out: IC50(M) A549/Taxol, Table 1, MTT, 4 days of culture
[13] = Table 1, MTT, 4 days of culture, read-out: IC50(M) KB

For `CC=C(C)C(=O)NC(c1ccccc1)C(O)C(=O)OC1CC2(O)C(OC(=O)c3cccc(OC)c3)C3C4(OC(C)=O)COC4CC(O)C3(C)C(=O)C(OC(=O)CC)C(=C1C)C2(C)C` (stereo not drawn) [Example 3, 2-(3-methoxybenzoyl)-10-propionyl-cephalomannine], the IC50 [1, 10] was 7.04e-08 M, the IC50 [2, 11] was 8.02e-07 M and the IC50 [3, 12] was over 1e-06 M.

Molecule `C/C=C(\C)C(=O)N[C@@H](c1ccccc1)[C@@H](O)C(=O)O[C@H]1C[C@@]2(O)[C@@H](OC(=O)c3cccc(OC)c3)[C@@H]3[C@]4(OC(C)=O)CO[C@@H]4C[C@H](O)[C@@]3(C)C(=O)[C@H](OC(C)=O)C(=C1C)C2(C)C` [Example 6, 2-(3-methoxybenzoyl)-cephalomannine] has an IC50 [4, 13] of 1.44e-07 M, an IC50 [1, 10] of 2.1e-07 M and an IC50 [2, 11] of 8.94e-07 M. The IC50 [3, 12] was over 1e-06 M.

`C/C=C(\C)C(=O)N[C@@H](c1ccccc1)[C@@H](O)C(=O)O[C@H]1C[C@@]2(O)[C@@H](OC(=O)c3cccc(N=[N+]=[N-])c3)[C@@H]3[C@]4(OC(C)=O)CO[C@@H]4C[C@H](O)[C@@]3(C)C(=O)[C@H](OC(C)=O)C(=C1C)C2(C)C` [Example 5, 2-(3-azidobenzoyl)-cephalomannine] showed an IC50 [4, 13] of 5.9e-10 M, an IC50 [1, 10] of over 1e-06 M and an IC50 [2, 11] of 2.23e-07 M. The IC50 [3, 12] was over 1e-06 M.

`CC=C(C)C(=O)NC(c1ccccc1)C(O)C(=O)OC1CC2(O)C(OC(=O)c3cccc(OC)c3)C3C4(OC(C)=O)COC4CC(OC(=O)CC)C3(C)C(=O)C(O)C(=C1C)C2(C)C` (stereo not drawn) [Example 7, 2-(3-methoxybenzoyl)-7-propionyl-10-deacetyl-cephalomannine] showed an IC50 [4, 13] of 8.78e-09 M, an IC50 [1, 10] of 2.51e-07 M and an IC50 [2, 11] of 2.79e-07 M. It also gave an IC50 [3, 12] of over 1e-06 M.

For `CC(=O)O[C@H]1C(=O)[C@@]2(C)[C@H]([C@H](OC(=O)c3ccccc3)[C@]3(O)C[C@H](OC(=O)[C@H](O)[C@@H](NC(=O)c4ccccc4)c4ccccc4)C(C)=C1C3(C)C)[C@]1(OC(C)=O)CO[C@@H]1C[C@@H]2O` [taxol, paclitaxel, reference compound], the RTV ([5]; 30 × 4 mg/kg i.p.) was 4.4, the “T/C (%)” value ([5]; 30 × 4 mg/kg i.p.) was 45.4% and the “Tv x ± SD d0” value ([5]; 30 × 4 mg/kg i.p., d0 (first administration)) was 137.9 ± 21.0. The “Tv x ± SD dn” value ([5]; 30 × 4 mg/kg i.p., dn: 30 days after the first administration) was 604.8 ± 525.0, the “Body weight (g) end” value ([5]; 30 × 4 mg/kg i.p., end) was 23.3 g and the “Body weight (g) initial” value ([5]; 30 × 4 mg/kg i.p., initial) was 22.7 g. For the same molecule, the “inhibition of tumor growth, conclusion in words” value (“inhibition of tumor growth” for short) ([5]; A2780 nude mice-xenograft tumor, comparison with taxol) was “can inhibit the growth”, the IC50 (BGC-823) was 6.3 nM and the “Inhibition (%)” value (Lewis lung cancer; 10 × 6 mg/kg) was 31.64%. For the same molecule, the “Tumor weight (g) Average” value (Lewis lung cancer; 10 × 6 mg/kg) was 1.96 g, the “Body weight (g) end” value (Lewis lung cancer; 10 × 6 mg/kg, end) was 19.4 g and the “Body weight (g) initial” value (Lewis lung cancer; 10 × 6 mg/kg, initial) was 19.7 g. For the same molecule, the “inhibition of tumor growth” value (Lewis lung cancer; Lewis lung cancer, comparison with taxol) was “can inhibit the growth”, the IC50 [6] was 330 nM and the IC50 ([4]; Homo sapiens, KB, 96 h, Table 1, MTT, 4 days of culture, read-out: IC50(M) KB) was 8.66e-09 M. For the same molecule, the IC50 ([4]; Homo sapiens, KB, Table 2, MTT assay, read-out: IC50 (mol/L) KB) was 1.8e-09 M, the IC50 ([1]; Homo sapiens, A549, 96 h, Table 1, MTT, 4 days of culture, read-out: IC50(M) A549) was 2.32e-07 M and the IC50 ([1]; Homo sapiens, A549, Table 2, MTT assay, read-out: IC50 (mol/L) A549) was 5.2e-09 M. For the same molecule, the IC50 [7] was 0.41 nM, the IC50 (HCT-8) was 0.73 nM and the IC50 (BGC-803) was 2.5 nM. For the same molecule, the RTV ([8]; 30 × 3 mg/kg) was 4.6, the “T/C (%)” value ([8]; 30 × 3 mg/kg) was 38.9% and the “Body weight (g) end” value ([8]; 30 × 3 mg/kg, end) was 24.3 g. For the same molecule, the “Tv x ± SD end” value ([8]; 30 × 3 mg/kg, end) was 2152 ± 474, the “Body weight (g) initial” value ([8]; 30 × 3 mg/kg, initial) was 22.0 g and the “inhibition of tumor growth” value ([8]; A549 nude mice-xenograft tumor, comparison with taxol) was “can inhibit the growth”. The RTV ([9]; 30 × 3 mg/kg i.p.) was 0.66, the “T/C (%)” value ([9]; 30 × 3 mg/kg i.p.) was 2.41% and the “Tv x ± SD d0” value ([9]; 30 × 3 mg/kg i.p., d0) was 98.8 ± 47.35. The “Tv x ± SD dn” value ([9]; 30 × 3 mg/kg i.p., dn 30 days after the first administration) was 104.9 ± 144.9, the “Body weight (g) end” value ([9]; 30 × 3 mg/kg i.p., end) was 23.9 g and the “Body weight (g) initial” value ([9]; 30 × 3 mg/kg i.p., initial) was 25.2 g. For the same molecule, the “inhibition of tumor growth” value ([9]; BGC-823 nude mice-xenograft tumor, comparison with taxol) was “can inhibit the growth”, the IC50 ([2]; Homo sapiens, KBV, 96 h, Table 1, MTT, 4 days of culture) was 9.59e-07 M and the IC50 ([3]; Homo sapiens, A549/Taxol, 96 h, read-out: IC50(M) A549/Taxol, Table 1, MTT, 4 days of culture) was over 1e-06 M. It also gave an IC50 ([3]; Homo sapiens, A549, Table 2, MTT assay, read-out: IC50 (mol/L) A549/T) of 2.6e-08 M.

In the case of `C/C=C(\C)C(=O)N[C@@H](c1ccccc1)[C@@H](O)C(=O)O[C@H]1C[C@@]2(O)[C@@H](OC(=O)c3cccc(N=[N+]=[N-])c3)[C@@H]3[C@]4(OC(C)=O)CO[C@@H]4C[C@H](O)[C@@]3(C)C(=O)[C@H](OC(=O)CC)C(=C1C)C2(C)C` [Example 2, 2-(3-azidobenzoyl)-10-propionyl-cephalomannine], the IC50 [1, 10] is reported as 8.79e-08 M, the IC50 [2, 11] is reported as 1.53e-07 M and the IC50 [3, 12] is reported as over 1e-06 M.

Molecule `C/C=C(\C)C(=O)N[C@@H](c1ccccc1)[C@@H](O)C(=O)O[C@H]1C[C@@]2(O)[C@@H](OC(=O)c3ccccc3)[C@@H]3[C@]4(OC(C)=O)CO[C@@H]4C[C@H](O)[C@@]3(C)C(=O)[C@H](OC(C)=O)C(=C1C)C2(C)C` [cephalomannine, reference compound] has an IC50 ([4]; Homo sapiens, KB, 96 h, read-out: IC50(M) KB) of 5.18e-09 M, an IC50 ([1]; Homo sapiens, A549, 96 h, read-out: IC50(M) A549) of 1.33e-07 M and an IC50 ([2]; Homo sapiens, KBV, 96 h) of 1e-06 M. It also gave an IC50 ([3]; Homo sapiens, A549/Taxol, 96 h, read-out: IC50(M) A549/Taxol) of over 1e-06 M.

With `C/C=C(\C)C(=O)N[C@@H](c1ccccc1)[C@@H](O)C(=O)O[C@H]1C[C@@]2(O)[C@@H](OC(=O)c3ccccc3)[C@@H]3[C@]4(OC(C)=O)CO[C@@H]4C[C@H](O)[C@@]3(C)C(=O)[C@H](O)C(=C1C)C2(C)C` [Example 1, 10-deacetyl-cephalomannine] the IC50 [1, 10] was over 1e-06 M, the IC50 [2, 11] was over 1e-06 M and the IC50 [3, 12] was over 1e-06 M.

In the case of `C/C=C(\C)C(=O)N[C@@H](c1ccccc1)[C@@H](O)C(=O)O[C@H]1C[C@@]2(O)[C@@H](OC(=O)c3ccccc3)[C@@H]3[C@]4(OC(C)=O)CO[C@@H]4C[C@H](O)[C@@]3(C)C(=O)[C@H](OC(=O)CC)C(=C1C)C2(C)C` [Example 4, 10-propionyl-cephalomannine], the IC50 [4, 13] is reported as 9.74e-09 M, the IC50 [1, 10] is reported as 2.01e-07 M and the IC50 [2, 11] is reported as 4.85e-07 M. The IC50 [3, 12] was 4.21e-07 M.
